Test results taken from patent US11214803B2, “Modulators of YAP1 expression” (Ionis Pharmaceuticals, Inc., priority 2019, dated 2022).
Strand notation (5' to 3'): a small letter for the sugar, then the base; units joined by * are phosphorothioate-linked, units joined directly phosphodiester-linked; [ ] holds rarer units or linkages, { } end groups; capitals alone tell only the bases. e = 2'-O-(2-methoxyethyl) (MOE); k = constrained ethyl (cEt); [5mC] = 5-methylcytosine; d = 2'-deoxy (DNA); m = 2'-O-methyl

System: Yap1 mRNA
Test: Antisense inhibition of human Yap1 in SNU-449 cells by modified oligonucleotides, single dose (Example 5, RTS36584)
Format: cell-based
In short: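 Plate SNU-449 cells at 10,000 per well; add 2,000 nM modified oligonucleotide without transfection reagent; after ~48 h isolate RNA, run qRT-PCR with RTS36584, normalise to RIBOGREEN and report % UTC.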

[1] = Table 51, Yap1 mRNA remaining as percent of untreated control (UT), SNU-449 cells, single dose
[2] = Table 50, Yap1 mRNA remaining as percent of untreated control (UT), SNU-449 cells, single dose
[3] = Table 45, Yap1 mRNA as percent of untreated control, SNU-449 cells, single dose
[4] = Yap1 mRNA, percent of untreated control, modified oligonucleotides targeting SEQ ID NO: 1 and 2, Table 47
[5] = Table 49, Yap1 mRNA level relative to untreated control, modified oligonucleotides targeting SEQ ID NO.: 1 and 2
[6] = Table 39, SNU-449 cells, 10,000 cells per well, free uptake, 2,000 nM oligonucleotide, approx. 48 hours, RTS36584, normalized to RIBOGREEN, Yap1 mRNA relative to untreated control
[7] = Table 48, Yap1 mRNA level relative to untreated control, modified oligonucleotides targeting SEQ ID NO.: 1 and 2
[8] = Table 43 experiment, SNU-449 cells, 10,000 cells per well, free uptake, 2,000 nM, approximately 48 hours, RTS36584, Yap1 mRNA normalized to RIBOGREEN, relative to untreated control cells
[9] = Table 44 experiment, SNU-449 cells, 10,000 cells per well, free uptake, 2,000 nM, approximately 48 hours, RTS36584, Yap1 mRNA normalized to RIBOGREEN, relative to untreated control cells
[10] = Table 40 (separate experiment), SNU-449 cells, 10,000 cells per well, free uptake, 2,000 nM oligonucleotide, approx. 48 hours, RTS36584, normalized to RIBOGREEN, Yap1 mRNA relative to untreated control
[11] = Table 41, SNU-449 cells, 10,000 cells per well, free uptake, 2,000 nM modified oligonucleotide, approximately 48 hours, RTS36584, normalized to RIBOGREEN, Yap1 mRNA relative to untreated control cells
[12] = Table 46, Yap1 mRNA as percent of untreated control, SNU-449 cells, single dose

## 1200817 (kA*kG*k[5mC]*dA*d[5mC]*mU*dT*dT*dT*dA*d[5mC]*dA*dT*kT*kA*kG; antisense) [Compound 1200817]
Table 52, Yap1 mRNA, modified oligonucleotides targeting SEQ ID NO: 1 and 2
  YAP1 (% UT): 38 % UT

## 1197317 (kA*kG*kA*d[5mC]*mU*dA*dA*dG*dT*dA*dA*dG*dG*kT*kT*kT; antisense) [Compound 1197317]
[1]
  YAP1 (% UT): 78 % UT

## 1197236 (antisense kT*kA*kT*dT*mA*dG*dA*dG*dT*dA*dT*dG*dT*kG*kG*k[5mC]) [Compound 1197236]
[2]
  YAP1 (% UT): 17 % UT

## 1198896 (kT*kG*dG*dA*dA*dA*dT*dT*dG*dT*d[5mC]*kT*d[5mC]*kA*dT*kG; antisense) [Compound 1198896]
[3]
  YAP1 (% UTC): 59 % UTC

## 1197211 (antisense kT*kA*kT*dG*dT*dA*dA*dT*dA*dT*dT*dG*d[5mC]*kA*kA*kT) [Compound 1197211]
[4]
  YAP1 (% UT): 80 % UT

## 1198552 (antisense kA*kG*kA*dG*dT*dA*dT*dG*dT*dG*dG*d[5mC]*kA*kA*kT*eA) [Compound 1198552]
[5]
  YAP1 (% UT): 17 % UT

## 1197287 (kT*kA*kT*dA*mU*dT*dA*dG*dA*dG*dT*dA*dT*kG*kT*kG) [Compound 1197287]
[2]
  YAP1 (% UT): 108 % UT

## 1197309 (kG*kT*kA*dA*mU*dA*dT*dT*dG*d[5mC]*dA*dA*dT*k[5mC]*kT*kG; antisense) [Compound 1197309]
[1]
  YAP1 (% UT): 11 % UT

## 1198576 (antisense kT*kT*kT*dG*dG*dA*dA*dG*dA*dT*d[5mC]*dT*kG*kA*kA*eA) [Compound 1198576]
[5]
  YAP1 (% UT): 92 % UT

## 1097037 (antisense kA*kG*kA*dT*dT*dT*dA*dG*dG*dA*dT*dG*d[5mC]*kA*kT*kG) [Compound 1097037]
[4]
  YAP1 (% UT): 38 % UT

## 1198405 (k[5mC]*dT*dT*dT*dG*dG*dA*dA*dG*dA*dT*k[5mC]*eT*kG*eA*kA; antisense) [Compound 1198405]
[6]
  YAP1 (% UTC): 36 % UTC

## 1197199 (antisense kA*kT*kA*dT*dG*dG*dT*dT*dT*dT*dG*dT*dG*kT*kG*kT) [Compound 1197199]
[7]
  YAP1 (% UT): 75 % UT

## 1198435 (kA*dT*dG*dT*dA*dA*dT*dA*dT*dT*dG*k[5mC]*eA*kA*eT*k[5mC]; antisense) [Compound 1198435]
[6]
  YAP1 (% UTC): 57 % UTC

## 1198216 (kT*kA*dT*dA*dA*d[5mC]*dT*dG*dG*dG*d[5mC]*eA*eA*eA*kT*kT; antisense) [Compound 1198216]
[8]
  YAP1 (% UTC): 89 % UTC

## 1198490 (antisense kT*kT*dT*dG*dG*dA*dA*dG*dA*dT*d[5mC]*eT*kG*eA*kA*eA) [Compound 1198490]
[9]
  YAP1 (% UTC): 53 % UTC

## 1198589 (antisense k[5mC]*kA*kG*dA*dT*dT*dT*dA*dG*dG*dA*dT*kG*k[5mC]*kA*eT) [Compound 1198589]
[2]
  YAP1 (% UT): 24 % UT

## 1198445 (k[5mC]*dT*dT*dT*dA*dA*dA*dG*dT*dG*dT*kA*eT*kG*eT*k[5mC]; antisense) [Compound 1198445]
[10]
  YAP1 (% UTC): 61 % UTC

## 1198633 (kG*kG*dA*dA*dA*dT*dT*dG*dT*d[5mC]*dT*d[5mC]*kA*eT*kG*e[5mC]; antisense) [Compound 1198633]
[11]
  YAP1 (% UTC): 46 % UTC

## 1198560 (antisense kT*kA*kT*dA*dA*d[5mC]*dT*dG*dG*dG*d[5mC]*dA*kA*kA*kT*eT) [Compound 1198560]
[2]
  YAP1 (% UT): 53 % UT

## 1198727 (kA*eT*kT*dA*dG*dA*dG*dT*dA*dT*dG*dT*eG*eG*k[5mC]*kA; antisense) [Compound 1198727]
[10]
  YAP1 (% UTC): 19 % UTC

## 1198344 (kA*kT*kA*dT*dT*dG*d[5mC]*dA*dA*dT*d[5mC]*dT*kG*eT*k[5mC]*eT; antisense) [Compound 1198344]
[7]
  YAP1 (% UT): 55 % UT

## 1198481 (antisense k[5mC]*kT*dT*dT*dT*dA*d[5mC]*dA*dT*dT*dA*eG*kG*eA*kA*e[5mC]) [Compound 1198481]
[8]
  YAP1 (% UTC): 72 % UTC

## 1198585 (antisense kT*kT*kT*dA*dG*dG*dA*dT*dG*d[5mC]*dA*dT*kG*kG*kT*eT) [Compound 1198585]
[2]
  YAP1 (% UT): 22 % UT

## 1198412 (kT*dT*dA*dG*dG*dA*dT*dG*d[5mC]*dA*dT*kG*eG*kT*eT*kT; antisense) [Compound 1198412]
[6]
  YAP1 (% UTC): 17 % UTC

## 1198263 (kA*kT*dG*dT*dA*dA*dT*dA*dT*dT*dG*e[5mC]*eA*eA*kT*k[5mC]; antisense) [Compound 1198263]
[8]
  YAP1 (% UTC): 114 % UTC

## 1198631 (kA*kA*dA*dT*dT*dG*dT*d[5mC]*dT*d[5mC]*dA*dT*kG*e[5mC]*k[5mC]*eT; antisense) [Compound 1198631]
[11]
  YAP1 (% UTC): 53 % UTC

## 1198336 (k[5mC]*kT*kT*dA*dT*dA*dT*dG*dG*dT*dT*dT*kT*eG*kT*eG; antisense) [Compound 1198336]
[5]
  YAP1 (% UT): 31 % UT

## 1198588 (antisense kA*kG*kA*dT*dT*dT*dA*dG*dG*dA*dT*dG*k[5mC]*kA*kT*eG) [Compound 1198588]
[2]
  YAP1 (% UT): 32 % UT

## 1198314 (kA*kA*kG*d[5mC]*dA*d[5mC]*dT*dT*dT*dT*dA*d[5mC]*kA*eT*kT*eA; antisense) [Compound 1198314]
[7]
  YAP1 (% UT): 82 % UT

## 1198773 (kA*e[5mC]*kT*d[5mC]*dT*dT*dA*dT*dA*dT*dG*dG*eT*eT*kT*kT; antisense) [Compound 1198773]
[11]
  YAP1 (% UTC): 58 % UTC

## 1197226 (antisense kA*kG*kA*d[5mC]*dT*dA*dA*dG*dT*dA*dA*dG*dG*kT*kT*kT) [Compound 1197226]
[4]
  YAP1 (% UT): 67 % UT

## 1198808 (antisense kG*kA*dA*dA*dT*dT*dG*dT*d[5mC]*dT*d[5mC]*kA*eT*kG*e[5mC]*k[5mC]) [Compound 1198808]
[12]
  YAP1 (% UT): 40 % UT

## 1198370 (kT*dG*dT*d[5mC]*dT*d[5mC]*dA*dT*dG*d[5mC]*d[5mC]*kT*eT*kA*eT*kA; antisense) [Compound 1198370]
[6]
  YAP1 (% UTC): 20 % UTC

## 1197305 (kA*k[5mC]*kT*d[5mC]*mU*dT*dA*dT*dA*dT*dG*dG*dT*kT*kT*kT; antisense) [Compound 1197305]
[1]
  YAP1 (% UT): 30 % UT

## 1198353 (kA*kG*kT*dG*dT*dA*dT*dG*dT*d[5mC]*dA*dG*kA*eA*kG*eA; antisense) [Compound 1198353]
[5]
  YAP1 (% UT): 8 % UT

## 1198937 (k[5mC]*kA*dG*dA*dT*dT*dT*dA*dG*dG*dA*kT*dG*k[5mC]*dA*kT; antisense) [Compound 1198937]
[3]
  YAP1 (% UTC): 48 % UTC

## 1198464 (antisense kA*kT*dA*dT*dG*dG*dA*dA*dA*dT*dT*eG*kT*e[5mC]*kT*e[5mC]) [Compound 1198464]
[8]
  YAP1 (% UTC): 41 % UTC

## 1198292 (kA*kT*kA*dT*dG*dG*dA*dA*dA*dT*dT*dG*kT*e[5mC]*kT*e[5mC]; antisense) [Compound 1198292]
[7]
  YAP1 (% UT): 58 % UT

## 1198891 (kA*kT*dT*dG*dT*d[5mC]*dT*d[5mC]*dA*dT*dG*k[5mC]*d[5mC]*kT*dT*kA) [Compound 1198891]
[9]
  YAP1 (% UTC): 18 % UTC

## 1198784 (antisense kT*eA*kT*dG*dT*dA*dA*dT*dA*dT*dT*dG*e[5mC]*eA*kA*kT) [Compound 1198784]
[10]
  YAP1 (% UTC): 94 % UTC

## 1198217 (kG*kG*dT*dA*dT*dA*dA*d[5mC]*dT*dG*dG*eG*e[5mC]*eA*kA*kA; antisense) [Compound 1198217]
[8]
  YAP1 (% UTC): 57 % UTC

## 1197240 (antisense k[5mC]*kT*kG*dA*mG*dG*dT*dA*dT*dA*dA*d[5mC]*dT*kG*kG*kG) [Compound 1197240]
[1]
  YAP1 (% UT): 58 % UT

## 1197247 (antisense kA*kA*kG*d[5mC]*mA*d[5mC]*dT*dT*dT*dT*dA*d[5mC]*dA*kT*kT*kA) [Compound 1197247]
[2]
  YAP1 (% UT): 47 % UT

## 1198500 (kA*kT*dT*dT*dA*dG*dG*dA*dT*dG*d[5mC]*eA*kT*eG*kG*eT; antisense) [Compound 1198500]
[9]
  YAP1 (% UTC): 17 % UTC

## 1198909 (kG*kG*dT*dA*dT*dA*dA*d[5mC]*dT*dG*dG*kG*d[5mC]*kA*dA*kA; antisense) [Compound 1198909]
[3]
  YAP1 (% UTC): 56 % UTC

## 1095397 (antisense kT*dG*dA*dG*dG*dT*dA*dT*dA*dA*d[5mC]*kT*eG*kG*eG*k[5mC]) [Compound 1095397]
[6]
  YAP1 (% UTC): 53 % UTC

## 1197274 (kA*kG*kT*dA*mA*dG*dG*dT*dT*dT*d[5mC]*d[5mC]*d[5mC]*kA*kG*kA) [Compound 1197274]
[1]
  YAP1 (% UT): 31 % UT

## 1197218 (antisense kT*kT*kT*dA*dA*dA*dG*dT*dG*dT*dA*dT*dG*kT*k[5mC]*kA) [Compound 1197218]
[7]
  YAP1 (% UT): 29 % UT

## 1198818 (antisense kT*kA*dT*dT*dA*dG*dA*dG*dT*dA*dT*kG*eT*kG*eG*k[5mC]) [Compound 1198818]
[12]
  YAP1 (% UT): 15 % UT

## 1197233 (antisense kT*kA*kG*dA*mG*dT*dA*dT*dG*dT*dG*dG*d[5mC]*kA*kA*kT) [Compound 1197233]
[2]
  YAP1 (% UT): 36 % UT
